Entries after “also recorded” stand apart in the source; their conditions may differ.

Data set [1] in a line: WBC and platelet counts in rats. The format is in vivo, rat.
For a further data set, the system named is BT4C cell line. The data set can be described thus: in vitro cytotoxicity of TMZ on BT4C cell line. The format is cell-based. An excerpt: However, both in vitro and in vivo experiments there were no effect with TMZ therapy alone, implicating that other mechanism of resistance are in operation.
The efficacy of TMZ is known to be affected by different DNA repair activities (Kaina, 2003; Kaina et al., 2007; Parkinson et al., 2008; Takagi et al., 2003; Takagi et al., 2008) and by the presence of functional p53 activity (Blough et al. (2010) J Neurooncol.).

In the next data set the test system is rat glioma model. To be noted: TMZ therapy alone, in vivo experiments.

Experimental for rat glioma model: A study was conducted concerning tumour growth rate in a rat glioma model.

With `Nc1nc(O)c2ncn(COC(CO)CO)c2n1` [GCV, Ganciclovir], in data set [1], the WBC counts result is reported as “did not reduce these values significantly” and the platelet counts result is “did not reduce these values significantly”.
Take `Cn1nnc2c(C(N)=O)ncn2c1=O` [TMZ, Temozolomide]: in the data set on BT4C cell line (BT4C cells first treated with AdHSV-tk/GCV, TMZ in high concentration), the cytotoxicity entry was “started to demonstrate cytotoxicity”. Further, the “effect of treatment in vitro (cytotoxicity)” value with BT4C cell line (BT4C cells, TMZ alone, up to 1000 μM) is listed as “no effect; also recorded: does not respond to the treatment”. Moreover, in the data set on rat glioma model, the “effect of therapy in vivo” value is “no effect”. Moreover, in data set [1], the WBC counts entry is reported as “profound adverse effect” and the platelet counts entry is listed as “profound adverse effect”.

(Values after patent US20130331442A1, “Combination Therapy for Cancer” (FINVECTOR VISION THERAPIES LTD, priority 2011, published 2013).)
